The record followed here is ChEMBL document CHEMBL3784995, “Inhibitors of HIV-1 maturation: Development of structure-activity relationship for C-28 amides based on C-3 benzoic acid-modified triterpenoids” (Bioorg Med Chem Lett, 2016).

By bioavailability is commonly meant dose-corrected exposure relative to a reference, in per cent. Read a high bioavailability as good availability. As usually defined, the EC50 is the concentration needed to bring the measured effect to its halfway point. What is called AUC(0-t) is exposure summed from dosing to a finite time, without extrapolation to infinity. Broadly, the CC50 is the concentration that lowers cell viability or growth by half. Higher therefore signals lower toxicity to the cells. Usually clearance stands for a measure of how efficiently the substance is removed, as volume per time. High values mean efficient removal, low ones inefficient removal. One may read the half-life as the time needed for the level to fall by half in the phase considered. One may read the Cmax as the maximum level reached in the sampled fluid or tissue. The term Vd denotes the apparent volume that relates the amount in the body to the concentration in plasma or blood. A lower Vd goes with confinement near the circulation. The term AUC denotes the area under the concentration-time curve, a measure of exposure.

A short description of data set [1]: Bioavailability in cannula implanted rat at 5 mg/kg administered through oral gavage after 24 hrs by LC-MS/MS analysis. Format: ADME, organism-based. The following applies: in vivo.
Data set [2] deals with Human immunodeficiency virus 1. Kind of data set: Antiviral activity against wild type HIV1 NL4-3 habouring Gag protein delta V370 infected in human MT2 cells after 4 to 5 days by dual-luciferase reporter gene assay. Format: functional, organism-based. Conditions: Human immunodeficiency virus 1, NL4-3, MT2. On the technique in general: Reporter assays use an easily measured gene product as a stand-in for the process of interest.

In data set [3] the test system is Human immunodeficiency virus 1. Nature of the data set: Antiviral activity against wild type BVM-resistant HIV1 NL4-3 habouring Gag protein T371A mutant infected in human MT2 cells after 4 to 5 days by dual-luciferase reporter gene assay. Format: functional, organism-based. The following applies: Human immunodeficiency virus 1, NL4-3, MT2.
Data set [4] is described as follows: AUC (0 to 6 hrs) in cannula implanted rat at 5 mg/kg administered through oral gavage after 24 hrs by LC-MS/MS analysis. Format: ADME, organism-based. Further details: dose 5 mg/kg, time < 6 hr, route oral. Conditions: in vivo.
The nature of data set [5]: Cytotoxicity against human MT2 cells. Format: cell-based.
Data set [6] relates to Human immunodeficiency virus 1. Kind of data set: Antiviral activity against wild type HIV1 NL4-3 infected in human MT2 cells after 4 to 5 days by dual-luciferase reporter gene assay. Format: functional, organism-based. The following applies: Human immunodeficiency virus 1, NL4-3, MT2.
Data set [7] can be described thus: Plasma clearance in cannula implanted rat at 1 mg/kg, iv by LC-MS/MS analysis. Format: ADME, organism-based.
Data set [8] can be described thus: Metabolic stability in human liver microsomes at 0.5 uM by LC-MS/MS analysis in presence of NADPH. Format: ADME. In general terms: Liver microsomes are vesicles of endoplasmic reticulum, rich in cytochrome P450 enzymes.
Data set [9] is described as follows: Metabolic stability in rat liver microsomes at 0.5 uM by LC-MS/MS analysis in presence of NADPH. Format: ADME.
For data set [10], the system named is Human immunodeficiency virus 1. Nature of the data set: Antiviral activity against wild type HIV1 NL4-3 habouring Gag protein V370A mutant infected in human MT2 cells after 4 to 5 days by dual-luciferase reporter gene assay. Format: functional, organism-based. Conditions: Human immunodeficiency virus 1, NL4-3, MT2.
Data set [11] can be described thus: Cmax in cannula implanted rat at 5 mg/kg administered through oral gavage after 24 hrs by LC-MS/MS analysis. Format: ADME, organism-based. Also on record: dose 5 mg/kg, route oral. The following applies: in vivo.
Data set [12] has as its system Human immunodeficiency virus 1. Nature of the data set: Antiviral activity against wild type HIV1 NL4-3 infected in human MT2 cells after 4 to 5 days by dual-luciferase reporter gene assay in presence of human serum albumin. Format: functional, organism-based. Conditions: Human immunodeficiency virus 1, NL4-3, MT2.
The nature of another data set: in vivo. Conditions: rat, iv, 1 mg/kg.
The nature of data set [13]: (§1) Total AUC in cannula implanted rat at 5 mg/kg administered through oral gavage after 24 hrs by LC-MS/MS analysis. Format: ADME, organism-based. Further details: dose 5 mg/kg, time AUCmax, route oral. Conditions: in vivo.
A short description of data set [14]: Plasma concentration in cannula implanted rat at 5 mg/kg administered through oral gavage after 24 hrs by LC-MS/MS analysis. Format: ADME, organism-based.
Data set [15] concerns Human immunodeficiency virus 1. Nature of the data set: Antiviral activity against wild type BVM-resistant HIV1 NL4-3 habouring Gag protein delta T371 infected in human MT2 cells after 4 to 5 days by dual-luciferase reporter gene assay. Format: functional, organism-based. Conditions: Human immunodeficiency virus 1, NL4-3, MT2.
In data set [16] the test system is Human immunodeficiency virus 1. Nature of the data set: Antiviral activity against wild type BVM-resistant HIV1 NL4-3 habouring Gag protein V370M mutant infected in human MT2 cells after 4 to 5 days by dual-luciferase reporter gene assay. Format: functional, organism-based. The following applies: Human immunodeficiency virus 1, NL4-3, MT2.
For the next data set, the system named is Rattus norvegicus. The description is as §1. Format: ADME, organism-based. Conditions: in vivo, 24 h. Also on record: dose 5 mg/kg, time AUCmax, route oral.

The structures appear in SMILES notation.

Description for in vivo: Volume of distribution at steady state in cannula implanted rat at 1 mg/kg, iv by LC-MS/MS analysis

`C=C(C)[C@@H]1CC[C@]2(C(=O)O)CC[C@]3(C)[C@H](CC[C@@H]4[C@@]5(C)CC=C(c6ccc(C(=O)O)cc6)C(C)(C)[C@@H]5CC[C@]43C)[C@@H]12` showed a bioavailability in data set [1] of 4%. Besides, in data set [2], the EC50 was > 6000 nM.
Turning to `C=C(C)[C@@H]1CC[C@]2(C(=O)O)CC[C@]3(C)[C@H](CC[C@@H]4[C@@]5(C)CC[C@H](OC(=O)CC(C)(C)C(=O)O)C(C)(C)[C@@H]5CC[C@]43C)[C@@H]12` [BEVIRIMAT], the EC50 is 40 nM in [3] and > 10000 nM in [2].
For the compound `C=C(C)[C@@H]1CC[C@]2(C(=O)NCCN(C(C)C)C(C)C)CC[C@]3(C)[C@H](CC[C@@H]4[C@@]5(C)CC=C(c6ccc(C(=O)O)cc6)C(C)(C)[C@@H]5CC[C@]43C)[C@@H]12`, the AUC(0-t) at 6 h in [4] stood at 1.31 µM·h. In data set [5], this compound yielded a CC50 of 3000 nM. The figures for the EC50 in data set [6], in data set [10] and in data set [2] were 4 nM, 13 nM and 69 nM, respectively. Besides, the clearance in data set [7] is 4.3 mL/min/kg. Further, the half-life at 0.5 µM in data set [8] and in data set [9] was > 2 h in each case. Further, the Cmax in data set [11] was found to be 302 nM.
The compound `C=C(C)[C@@H]1CC[C@]2(C(=O)NCCC(=O)O)CC[C@]3(C)[C@H](CC[C@@H]4[C@@]5(C)CC=C(c6ccc(C(=O)O)cc6)C(C)(C)[C@@H]5CC[C@]43C)[C@@H]12` gave an AUC(0-t) at 6 h in data set [4] of 43.2 µM·h. Further, the EC50 in [12] is 449 nM; in data set [6], 37 nM; in data set [10], 427 nM; in data set [2], > 4000 nM. In “in vivo”, this compound displayed a Vd of 0.02 L/kg. This compound also returned a CC50 in [5] of 36000 nM. The compound further returned a clearance in data set [7] of 1.2 mL/min/kg. For the same compound, the half-life at 0.5 µM in data set [8] was 1.88 h; in [9] it was > 2 h. The compound also registered an AUC at 24 h in data set [13] of 79.9 µM·h. In data set [1], the bioavailability turned out to be 71%. This compound showed a concentration at 24 h in data set [14] of 137 nM. The compound also showed a Cmax in data set [11] of 9470 nM.
As for `C=C(C)[C@@H]1CC[C@]2(C(=O)N(C)CCN(C)C)CC[C@]3(C)[C@H](CC[C@@H]4[C@@]5(C)CC=C(c6ccc(C(=O)O)cc6)C(C)(C)[C@@H]5CC[C@]43C)[C@@H]12`, in [4], the AUC(0-t) at 6 h came out at 1.42 µM·h. In addition, the EC50 in [12] came to 17 nM; in data set [6], 6 nM; in data set [10], 38 nM; in data set [2], 25 nM. For the same compound, the CC50 in [5] was determined as 3000 nM. Also, in data set [7], the clearance was determined as 2.2 mL/min/kg. The half-life at 0.5 µM in data set [8] is > 2 h; in data set [9] it was 1.42 h. This compound had an AUC at 24 h in data set [13] of 6.87 µM·h. Further, the bioavailability in data set [1] was found to be 11%. The compound also yielded a concentration at 24 h in data set [14] of 108 nM. The compound further showed a maximum concentration (Cmax) in data set [11] of 386 nM.
The compound `C=C(C)[C@@H]1CC[C@]2(C(=O)NCCc3ccccn3)CC[C@]3(C)[C@H](CC[C@@H]4[C@@]5(C)CC=C(c6ccc(C(=O)O)cc6)C(C)(C)[C@@H]5CC[C@]43C)[C@@H]12` gave an AUC(0-t) at 6 h in data set [4] of 0.721 µM·h. Further, the Vd in the data set “in vivo” was found to be 1.1 L/kg. Further, in data set [5], the midpoint of cytotoxicity, the CC50, lay at 8000 nM. Also, the EC50 in data set [6] worked out at 15 nM; in data set [10], 19 nM; in data set [3], 19 nM; in data set [15] it was 38 nM; in data set [16] it was 61 nM; in data set [2], 415 nM. In data set [7], the clearance was 3.2 mL/min/kg. In addition, the half-life at 0.5 µM in [8] is 0.717 h; in data set [9] it was > 2 h. Further, the AUC at 24 h in data set [13] is 1.23 µM·h. Moreover, the bioavailability in data set [1] came out at 3%. Moreover, the concentration at 24 h in [14] came out at 5 nM. The same compound yielded a Cmax in data set [11] of 172 nM.
`C=C(C)[C@@H]1CC[C@]2(C(=O)NCCCN(C)C)CC[C@]3(C)[C@H](CC[C@@H]4[C@@]5(C)CC=C(c6ccc(C(=O)O)cc6)C(C)(C)[C@@H]5CC[C@]43C)[C@@H]12` had an AUC(0-t) at 6 h in [4] of 0.116 µM·h. Moreover, the EC50 in [12] is 3 nM; in data set [6], 2 nM; in data set [10], 9 nM; in [2], 50 nM. Half-maximal cytotoxicity in data set [5] (CC50) was put at 500 nM. In addition, in data set [7], the clearance stood at 8.3 mL/min/kg. Further, the half-life at 0.5 µM in [8] and in data set [9] was > 2 h in each case. In data set [11], this compound registered a Cmax of 36 nM.
On to `C=C(C)[C@@H]1CC[C@]2(C(=O)NCCN(C)C)CC[C@]3(C)[C@H](CC[C@@H]4[C@@]5(C)CC=C(c6ccc(C(=O)O)cc6)C(C)(C)[C@@H]5CC[C@]43C)[C@@H]12`, for which the AUC(0-t) at 6 h in data set [4] was found to be 1.62 µM·h. In addition, the Vd in “in vivo” worked out at 2.3 L/kg. For the same compound, the CC50 in [5] is 3000 nM. The same compound showed a clearance in [7] of 6.1 mL/min/kg. Besides, the half-life at 0.5 µM in data set [8] and in data set [9] was > 2 h in each case. Further, the AUC in the data set with Rattus norvegicus turned out to be 3.814 µM·h. Also, the concentration for a half-maximal effect (EC50) turned out to be 3 nM in data set [3], 3 nM in [15], 10 nM in data set [16] and 31 nM in [2]. The compound further showed a bioavailability in data set [1] of 17%. Besides, in data set [11], the concentration peaked (Cmax) at 396 nM.
